From article PMC3130785, “Small Compound 6-O-Angeloylplenolin Induces Mitotic Arrest and Exhibits Therapeutic Potentials in Multiple Myeloma” (PLoS ONE, 2011) come the findings set out here.

In one assay the test system is U266 cells. As to the kind of experiment: Cell cycle distribution by flow cytometry. Format: cell-based, human. The note with it: 5 to 10 µM for 48 h. The protocol:
(§1) MM cells were synchronized to G1/S boundary by a double-thymidine block. Briefly, cells were treated with 2 mM thymidine (Sigma-Aldrich) for 16 h, released into fresh medium for 9 h and subjected again to thymidine for another 16 h and then exposed to 6-OAP for indicated time points. Cells were harvested, fixed with 70% cold ethanol, incubated with RNase, and stained with propidium iodide (PI) (Sigma-Aldrich). Cell cycle distribution was analyzed by flow cytometry and CellQuest software (Becton Dickson).
(§2) Figure 2 6-OAP induces mitotic arrest in MM cells. (A) U266 cells were treated with 6-OAP at 7.5 µM for 0, 24, 48 h and imaged by Leica DMI 400B microscope. (B) U266 cells were treated with 6-OAP at indicated concentrations for 48 h. Cell cycle distribution was determined by flow cytometry. (C) MM.1S cells were treated with 5 µM 6-OAP for 48 h. Cell cycle distribution was determined by flow cytometry. (D) U266 cells were treated with 6-OAP at 5 to 7.5 µM for 24 h (left panel) or at 7.5 µM for 12 to 24 h (right panel). For immunofluorescence analysis of microtubules, cells was stained with an anti-α-tubulin antibody to visualize microtubules (green) and DAPI to counter stained DNA (blue) and observed by confocal microscopy. (E) Indicated cells were treated with 6-OAP at indicated concentration for 24 h, lysed, and Western blotting was performed using antibodies indicated. […]

A further assay deals with MM.1S cells. As to the kind of experiment: Cell cycle distribution by flow cytometry. The class given is cell-based, human. The following applies: 5 to 10 µM for 48 h. As for the experimental part: as §1, §2
Background: In flow cytometry, cells or beads pass a laser one at a time.

As to `CC=C(C)C(=O)OC1C2C(CC(C)C3C=CC(=O)C31C)OC(=O)C2C` (centres unmarked) [6-OAP, 6-O-angeloylplenolin], the “cells in G2/M phase” value in the assay with U266 cells and with MM.1S cells was “accumulation” in each case.
